Experimental data: ChEMBL document CHEMBL4052703, “Cyclic tetrapeptide HDAC inhibitors as potential therapeutics for spinal muscular atrophy: Screening with iPSC-derived neuronal cells” (Bioorg Med Chem Lett, 2017)
pIC50: −log10 of the molar value. Calls of active or inactive are those of the source. The calls are words filed in the database; no cut-off is given here. Square brackets hold non-standard residues; d marks the D form. Peptide text beside a SMILES is read from it. * marks the point of attachment. 1Nal = N[C@@H](Cc1cccc2ccccc12)C(=O)O; Asu = N[C@@H](CCCCCC(=O)O)C(=O)O; β3hL = CC(C)C[C@H](N)CC(=O)O; Nva = CCC[C@H](N)C(=O)O; NHOH = ON*

Legend:
Homo sapiens [1] = organism: Homo sapiens; experiment: Increase in SMN2 mRNA expression in induced pluripotent stem cell derived from human GM03813 cells isolated from SMA patient homozygous for deletion of exons 7 and 8 in SMN1 gene and containing 3 SMN2 gene copies at 1 uM by PCR assay relative to untreated control
Homo sapiens [2] = organism: Homo sapiens; experiment: Increase in SMN2 mRNA expression in induced pluripotent stem cell derived from human GM03813 cells isolated from SMA patient homozygous for deletion of exons 7 and 8 in SMN1 gene and containing 3 SMN2 gene copies at 0.1 uM by PCR assay relative to untreated control
Histone deacetylase 2 = Histone deacetylase 2 (Homo sapiens, UniProt Q92769); experiment: Inhibition of HDAC2 (unknown origin)
Chain of Histone deacetylase 2 (Q92769 whole entry): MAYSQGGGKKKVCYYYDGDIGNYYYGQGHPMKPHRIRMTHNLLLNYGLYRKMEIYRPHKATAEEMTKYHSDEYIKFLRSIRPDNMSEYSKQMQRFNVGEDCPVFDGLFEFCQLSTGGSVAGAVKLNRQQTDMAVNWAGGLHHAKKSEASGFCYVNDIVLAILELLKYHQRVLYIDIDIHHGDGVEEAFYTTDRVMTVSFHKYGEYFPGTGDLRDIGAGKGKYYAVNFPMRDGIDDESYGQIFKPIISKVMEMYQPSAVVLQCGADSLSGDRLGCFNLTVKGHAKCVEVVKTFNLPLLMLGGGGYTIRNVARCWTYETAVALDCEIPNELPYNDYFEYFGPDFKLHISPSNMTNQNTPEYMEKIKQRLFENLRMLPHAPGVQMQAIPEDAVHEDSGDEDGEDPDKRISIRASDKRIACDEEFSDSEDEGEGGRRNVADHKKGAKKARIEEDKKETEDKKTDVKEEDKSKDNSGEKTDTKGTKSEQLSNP

[3] = target: T1, Protein deacetylase HDAC6 (Homo sapiens, UniProt Q9UBN7); experiment: Inhibition of HDAC6 (unknown origin)
T1 sequence (Q9UBN7 whole entry): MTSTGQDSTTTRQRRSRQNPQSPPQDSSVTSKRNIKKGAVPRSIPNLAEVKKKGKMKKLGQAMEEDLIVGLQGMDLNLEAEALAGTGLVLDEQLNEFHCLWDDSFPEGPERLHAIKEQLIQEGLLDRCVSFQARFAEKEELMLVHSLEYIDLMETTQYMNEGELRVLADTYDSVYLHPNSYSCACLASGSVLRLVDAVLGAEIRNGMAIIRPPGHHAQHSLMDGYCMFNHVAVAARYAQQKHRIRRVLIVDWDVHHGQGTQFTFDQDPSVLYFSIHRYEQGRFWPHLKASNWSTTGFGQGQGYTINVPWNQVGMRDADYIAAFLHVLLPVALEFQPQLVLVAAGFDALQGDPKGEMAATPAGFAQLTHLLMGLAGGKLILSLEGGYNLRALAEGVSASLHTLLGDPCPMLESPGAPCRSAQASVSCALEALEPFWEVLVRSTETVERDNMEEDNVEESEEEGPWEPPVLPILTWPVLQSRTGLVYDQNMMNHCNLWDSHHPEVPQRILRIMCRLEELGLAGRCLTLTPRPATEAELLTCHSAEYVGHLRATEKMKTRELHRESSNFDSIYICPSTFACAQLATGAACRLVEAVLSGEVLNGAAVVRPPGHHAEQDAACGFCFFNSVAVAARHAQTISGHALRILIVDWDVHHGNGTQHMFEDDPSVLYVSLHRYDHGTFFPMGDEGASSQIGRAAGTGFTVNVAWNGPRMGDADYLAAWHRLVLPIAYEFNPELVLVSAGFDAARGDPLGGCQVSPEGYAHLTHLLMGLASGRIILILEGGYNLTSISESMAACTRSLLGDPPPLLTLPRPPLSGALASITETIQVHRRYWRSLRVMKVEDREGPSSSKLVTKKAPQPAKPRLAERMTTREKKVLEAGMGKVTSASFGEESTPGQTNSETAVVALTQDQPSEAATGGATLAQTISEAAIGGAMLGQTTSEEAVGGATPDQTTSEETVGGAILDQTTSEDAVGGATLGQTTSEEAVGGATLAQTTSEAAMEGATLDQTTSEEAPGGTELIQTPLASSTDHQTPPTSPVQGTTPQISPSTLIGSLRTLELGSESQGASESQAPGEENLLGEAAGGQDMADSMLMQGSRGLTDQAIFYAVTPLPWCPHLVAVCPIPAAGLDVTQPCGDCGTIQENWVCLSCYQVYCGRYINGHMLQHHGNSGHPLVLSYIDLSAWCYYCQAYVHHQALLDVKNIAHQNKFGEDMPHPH

Homo sapiens [4] = organism: Homo sapiens; experiment: Increase in SMN2 mRNA expression in induced pluripotent stem cell derived from human GM03813 cells isolated from SMA patient homozygous for deletion of exons 7 and 8 in SMN1 gene and containing 3 SMN2 gene copies at 0.1 to 5 uM by PCR assay relative to untreated control
[5] = Toxicity against induced pluripotent stem cell derived from human GM03813 cells isolated from SMA patient homozygous for deletion of exons 7 and 8 in SMN1 gene and containing 3 SMN2 gene copies assessed as reduction in SMN2 protein level at 10 uM; format: cell-based; details: induced pluripotent stem cell-derived neuron
Homo sapiens [6] = organism: Homo sapiens; experiment: Increase in […] in induced pluripotent stem cell derived from human GM03813 cells isolated from SMA patient homozygous for deletion of exons 7 and 8 in SMN1 gene and containing 3 SMN2 gene copies assessed as increase in SMN protein aggregates (Gems) at 5 uM incubated for 48 hrs by confocal microscopy
Histone deacetylase 8 = target: T2, Histone deacetylase 8 (Homo sapiens, UniProt Q9BY41); experiment: Inhibition of HDAC8 (unknown origin)
T2 sequence (Q9BY41 whole entry): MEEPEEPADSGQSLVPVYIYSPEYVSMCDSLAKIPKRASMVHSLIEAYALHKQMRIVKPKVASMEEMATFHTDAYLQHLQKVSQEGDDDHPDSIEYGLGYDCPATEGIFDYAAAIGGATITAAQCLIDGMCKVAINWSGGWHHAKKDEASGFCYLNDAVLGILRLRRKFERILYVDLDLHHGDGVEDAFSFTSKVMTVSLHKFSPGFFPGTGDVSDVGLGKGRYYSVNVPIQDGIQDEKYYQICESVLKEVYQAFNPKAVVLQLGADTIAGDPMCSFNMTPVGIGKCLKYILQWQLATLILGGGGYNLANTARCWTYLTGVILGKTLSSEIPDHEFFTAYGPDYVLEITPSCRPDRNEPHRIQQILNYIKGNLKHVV

Histone deacetylase 3 = Histone deacetylase 3 (Homo sapiens, UniProt O15379); experiment: Inhibition of HDAC3 (unknown origin)
Chain of Histone deacetylase 3 (O15379 whole entry): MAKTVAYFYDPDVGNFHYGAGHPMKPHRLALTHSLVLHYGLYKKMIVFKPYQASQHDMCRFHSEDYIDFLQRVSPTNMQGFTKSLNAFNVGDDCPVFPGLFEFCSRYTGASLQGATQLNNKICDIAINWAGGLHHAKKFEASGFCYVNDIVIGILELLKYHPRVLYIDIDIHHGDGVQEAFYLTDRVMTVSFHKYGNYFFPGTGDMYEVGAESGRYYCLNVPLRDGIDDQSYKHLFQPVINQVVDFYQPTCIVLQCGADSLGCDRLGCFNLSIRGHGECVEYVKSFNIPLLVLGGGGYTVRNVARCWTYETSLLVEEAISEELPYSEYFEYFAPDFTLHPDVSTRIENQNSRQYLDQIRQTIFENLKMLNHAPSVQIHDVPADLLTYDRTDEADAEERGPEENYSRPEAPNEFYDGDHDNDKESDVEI

| SMILES | fold change (FC) (Homo sapiens [1]) | fold change (FC) (Homo sapiens [2]) | pIC50 (Histone deacetylase 2) | also measured |
| --- | --- | --- | --- | --- |
| CCC[C@@H]1NC(=O)[C@H](C)NC(=O)C[C@H](CC(C)C)NC(=O)[C@H](Cc2cn(CN(C)C)c3ccccc23)NC1=O | 1.5 to 1.8 | – | – | – |
| CC(C)C[C@H]1CC(=O)N[C@@H](C)C(=O)N[C@@H](CCCCCC(=O)C(F)(F)F)C(=O)N[C@@H](Cc2c[nH]c3ccccc23)C(=O)N1 | 2.1 to 2.4 | 1.2 to 1.3 | 7.49 | pIC50 [3]: 5.55 |
| CC(C)C[C@H]1CC(=O)N[C@@H](C)C(=O)N[C@@H](CCCCCC(=O)O)C(=O)N[C@@H](Cc2cccc3ccccc23)C(=O)N1 (cyclo([Asu][1Nal][β3hL]A)) | 1.4 to 1.5 | 1.1 to 1.6 | – | – |
| CCC(=O)CCCCC[C@@H]1NC(=O)[C@H](C)NC(=O)C[C@H](CC(C)C)NC(=O)[C@H](Cc2cccc3ccccc23)NC1=O | 0.6 to 0.8 | – | – | – |
| CCC(=O)CCCCC[C@@H]1NC(=O)[C@H](Cc2ccccc2)NC(=O)C[C@H](CC(C)C)NC(=O)[C@H](Cc2c[nH]c3ccccc23)NC1=O | 0.8 to 1.4 | 0.6 to 1 | – | – |
| CCC(=O)CCCCC[C@@H]1NC(=O)[C@H](CCCCNC(C)=O)NC(=O)C[C@H](CC(C)C)NC(=O)[C@H](Cc2c[nH]c3ccccc23)NC1=O | 2.7 to 3.2 | 1 to 1.5 | – | pIC50 [3]: < 5.00; Activity (Homo sapiens [4]): Dose-dependent effect; Activity [5]: Toxic; Activity (Homo sapiens [6]): Active |
| CC(C)C[C@H]1CC(=O)N[C@@H](CCCCN)C(=O)N[C@@H](CCCCCC(=O)O)C(=O)N[C@@H](Cc2cccc3ccccc23)C(=O)N1 (cyclo([Asu][1Nal][β3hL]K)) | 0.6 to 1.1 | 1 | – | – |
| CC(C)C[C@H]1CC(=O)N[C@@H](C)C(=O)N[C@@H](CCCCCC(=O)NO)C(=O)N[C@@H](Cc2c[nH]c3ccccc23)C(=O)N1 (cyclo([Asu](NHOH)W[β3hL]A)) | 2 to 3 | 1.4 to 2.2 | 8.30 | – |
| CC(C)C[C@H]1CC(=O)N[C@@H](Cc2ccccc2)C(=O)N[C@@H](CCCCCC(=O)NO)C(=O)N[C@@H](Cc2c[nH]c3ccccc23)C(=O)N1 (cyclo([Asu](NHOH)W[β3hL]F)) | 2.7 to 3.6 | 1 to 1.5 | – | – |
| CCC(=O)CCCCC[C@@H]1NC(=O)[C@@H]2CCCN2C(=O)C[C@H](CC(C)C)NC(=O)[C@H](Cc2c[nH]c3ccccc23)NC1=O | 1.2 to 2 | 1 to 1.4 | 7.40 | pIC50 (Histone deacetylase 8): 5.82 |
| CCC(=O)CCCCC[C@@H]1NC(=O)[C@@H](C)n2nncc2[C@H](CC(C)C)NC(=O)[C@H](Cc2c[nH]c3ccccc23)NC1=O | 0.9 to 1.1 | 0.9 | – | pIC50 (Histone deacetylase 8): 6.96 |
| CCC[C@@H]1NC(=O)[C@H](C)NC(=O)C[C@H](CC(C)C)NC(=O)[C@H](Cc2c[nH]c3ccccc23)NC1=O (cyclo(A[Nva]W[β3hL])) | 0.7 to 0.8 | – | 5.80 | pIC50 (Histone deacetylase 3): 5.84 |
